Measurements: patent publication US20240043427A1 (Gilead Sciences, Inc., priority 2020, published 2024)

Target: CD73 (Homo sapiens (Human), UniProt P21589)
Assay type: biochemical
Conditions: 1 mM NaH2PO4 in enzyme buffer, CD73 0.3 nM, AMP 15 uM
Procedure: Compound serial dilutions were pre-spotted into Thermo Nunc assay plate. 50 uL CD73 enzyme buffer (CD73 purchased from R&D system=0.6 nM, 25 mM Tris, pH 7.4, 5 mM MgCl2, 1 mM NaH2PO4) was added into the assay plate and incubate for 15 mins. […] After incubation for 60 mins, the supernatant (20 uL) was transferred into 384-well NUNC plate pre-filled with 60 uL Quench buffer (80% organic and 20% water+0.1% FA) with internal standard. The plate was spun down at 4500 rpm for 20 mins, then 20 uL of supernatant was transferred to another Nunc plate prefilled with 80 uL of water. The samples were analyzed using Rapid fire.

Sequence of CD73 (P21589 27-574): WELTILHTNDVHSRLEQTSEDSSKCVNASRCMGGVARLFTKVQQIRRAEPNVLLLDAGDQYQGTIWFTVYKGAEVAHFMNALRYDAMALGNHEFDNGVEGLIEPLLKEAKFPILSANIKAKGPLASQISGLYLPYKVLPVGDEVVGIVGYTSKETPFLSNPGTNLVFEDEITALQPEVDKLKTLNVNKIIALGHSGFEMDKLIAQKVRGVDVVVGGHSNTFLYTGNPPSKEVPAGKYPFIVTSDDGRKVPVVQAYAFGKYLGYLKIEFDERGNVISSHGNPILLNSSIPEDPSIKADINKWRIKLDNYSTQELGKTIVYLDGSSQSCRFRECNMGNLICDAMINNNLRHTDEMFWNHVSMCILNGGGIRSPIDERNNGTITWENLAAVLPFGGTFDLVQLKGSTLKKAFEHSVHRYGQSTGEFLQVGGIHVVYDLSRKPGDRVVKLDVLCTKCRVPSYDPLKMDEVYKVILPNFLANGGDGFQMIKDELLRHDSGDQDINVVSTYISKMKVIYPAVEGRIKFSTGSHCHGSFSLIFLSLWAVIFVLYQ

Compound | IC50 [nM]
O=C(c1cccc([C@H]2C[C@@H]2c2cc(-c3c[nH]c(=O)[nH]c3=O)nn3ccnc23)c1)N1CCC(F)(F)C1 (racemic) [Example 306, 5-(8-((1S,2S)-2-(3-(3,3-difluoropyrrolidine-1-carbonyl)phenyl)cyclopropyl)imidazo[1,2-b]pyridazin-6-yl)pyrimidine-2,4(1H,3H)-dione] | 1.67
CC1(C)CCN(C(=O)c2ccc([C@H]3C[C@@H]3c3cc(-c4c[nH]c(=O)[nH]c4=O)nn4ccnc34)cc2)C1 (racemic) [Example 307, 5-(8-((1S,2S)-2-(4-(3,3-dimethylpyrrolidine-1-carbonyl)phenyl)cyclopropyl)imidazo[1,2-b]pyridazin-6-yl)pyrimidine-2,4(1H,3H)-dione] | 16.1
CC1(C)CCN(C(=O)c2cccc([C@H]3C[C@@H]3c3cc(-c4c[nH]c(=O)[nH]c4=O)nn4ccnc34)c2)C1 (racemic) [Example 308, 5-(8-((1S,2S)-2-(3-(3,3-dimethylpyrrolidine-1-carbonyl)phenyl)cyclopropyl)imidazo[1,2-b]pyridazin-6-yl)pyrimidine-2,4(1H,3H)-dione] | 5.47
N#Cc1cncc([C@H]2C[C@@H]2c2cc(-c3c[nH]c(=O)[nH]c3=O)nn3ccnc23)c1 (racemic) [Example 311, 5-((1S,2S)-2-(6-(2,4-dioxo-1,2,3,4-tetrahydropyrimidin-5-yl)imidazo[1,2-b]pyridazin-8-yl)cyclopropyl)nicotinonitrile] | 4.72
Cc1nc2cc([C@H]3C[C@@H]3c3cc(-c4c[nH]c(=O)[nH]c4=O)nn4ccnc34)ccc2s1 (racemic) [Example 321, 5-(8-((1S,2S)-2-(2-methylbenzo[d]thiazol-5-yl)cyclopropyl)imidazo[1,2-b]pyridazin-6-yl)pyrimidine-2,4(1H,3H)-dione] | 1.12
Cn1ncc2ccc([C@H]3C[C@@H]3c3cc(-c4c[nH]c(=O)[nH]c4=O)nn4ccnc34)cc21 (racemic) [Example 326, 5-(8-((1S,2S)-2-(1-methyl-1H-indazol-6-yl)cyclopropyl)imidazo[1,2-b]pyridazin-6-yl)pyrimidine-2,4(1H,3H)-dione] | 0.91
O=c1[nH]cc(-c2cc([C@H]3C[C@@H]3c3ccc4c(c3)OC(F)(F)O4)c3nccn3n2)c(=O)[nH]1 (racemic) [Example 360, 5-(8-((1S,2S)-2-(2,2-difluorobenzo[d][1,3]dioxol-5-yl)cyclopropyl)imidazo[1,2-b]pyridazin-6-yl)pyrimidine-2,4(1H,3H)-dione] | 0.92
O=c1[nH]cc(-c2cc([C@H]3C[C@@H]3c3cnn(C(F)F)c3)c3nccn3n2)c(=O)[nH]1 (racemic) [Example 368, 5-(8-((1S,2S)-2-(1-(difluoromethyl)-1H-pyrazol-4-yl)cyclopropyl)imidazo[1,2-b]pyridazin-6-yl)pyrimidine-2,4(1H,3H)-dione] | 3.73
O=c1[nH]cc(-c2cc([C@H]3C[C@@H]3c3ccn(C(F)F)n3)c3nccn3n2)c(=O)[nH]1 (racemic) [Example 369, 5-(8-((1S,2S)-2-(1-(difluoromethyl)-1H-pyrazol-3-yl)cyclopropyl)imidazo[1,2-b]pyridazin-6-yl)pyrimidine-2,4(1H,3H)-dione] | 21.5
N#Cc1ccc([C@H]2C[C@@H]2c2cc(-c3c[nH]c(=O)[nH]c3=O)nn3ccnc23)c(F)c1 (racemic) [Example 407, 4-((1S,2S)-2-(6-(2,4-dioxo-1,2,3,4-tetrahydropyrimidin-5-yl)imidazo[1,2-b]pyridazin-8-yl)cyclopropyl)-3-fluorobenzonitrile] | 1.9
N#Cc1cccc([C@H]2C[C@@H]2c2cc(-c3c[nH]c(=O)[nH]c3=O)nn3ccnc23)c1F (racemic) [Example 408, 3-((1S,2S)-2-(6-(2,4-dioxo-1,2,3,4-tetrahydropyrimidin-5-yl)imidazo[1,2-b]pyridazin-8-yl)cyclopropyl)-2-fluorobenzonitrile] | 2.35
N#Cc1ccc([C@H]2C[C@@H]2c2cc(-c3c[nH]c(=O)[nH]c3=O)nn3ccnc23)cc1C(F)(F)F (racemic) [Example 411, 4-((1S,2S)-2-(6-(2,4-dioxo-1,2,3,4-tetrahydropyrimidin-5-yl)imidazo[1,2-b]pyridazin-8-yl)cyclopropyl)-2-(trifluoromethyl)benzonitrile] | 6.11
N#Cc1cc([C@H]2C[C@@H]2c2cc(-c3c[nH]c(=O)[nH]c3=O)nn3ccnc23)ccc1C(F)(F)F (racemic) [Example 412, 5-((1S,2S)-2-(6-(2,4-dioxo-1,2,3,4-tetrahydropyrimidin-5-yl)imidazo[1,2-b]pyridazin-8-yl)cyclopropyl)-2-(trifluoromethyl)benzonitrile] | 6
O=c1[nH]cc(-c2cc(N3CC(Oc4ccc(C(F)(F)F)cn4)C(F)(F)C3)c3ncnn3n2)c(=O)[nH]1 (racemic) [Example 432, 5-(8-(3,3-difluoro-4-((5-(trifluoromethyl)pyridin-2-yl)oxy)pyrrolidin-1-yl)-[1,2,4]triazolo[1,5-b]pyridazin-6-yl)pyrimidine-2,4(1H,3H)-dione] | 0.15

Second part, the molecule after the results:

IC50 [nM] | Compound
42.3 | O=c1[nH]cc(-c2cc([C@H]3C[C@@H]3c3ccccc3OC(F)(F)F)c3nccn3n2)c(=O)[nH]1 (racemic) [Example 309, 5-(8-((1S,2S)-2-(2-(trifluoromethoxy)phenyl)cyclopropyl)imidazo[1,2-b]pyridazin-6-yl)pyrimidine-2,4(1H,3H)-dione]
1.29 | CNC(=O)c1ccc([C@H]2C[C@@H]2c2cc(-c3c[nH]c(=O)[nH]c3=O)nn3c(F)cnc23)cc1 (racemic) [Example 312, 4-((1S,2S)-2-(6-(2,4-dioxo-1,2,3,4-tetrahydropyrimidin-5-yl)-3-fluoroimidazo[1,2-b]pyridazin-8-yl)cyclopropyl)-N-methylbenzamide]
1.74 | O=c1[nH]cc(-c2cc([C@H]3C[C@@H]3c3ccc(OC(F)(F)F)cc3)c3nccn3n2)c(=O)[nH]1 (racemic) [Example 359, 5-(8-((1S,2S)-2-(4-(trifluoromethoxy)phenyl)cyclopropyl)imidazo[1,2-b]pyridazin-6-yl)pyrimidine-2,4(1H,3H)-dione]
2 | O=c1[nH]cc(-c2cc([C@H]3C[C@@H]3c3ccc(OCC(F)(F)F)cn3)c3nccn3n2)c(=O)[nH]1 (racemic) [Example 363, 5-(8-((1S,2S)-2-(5-(2,2,2-trifluoroethoxy)pyridin-2-yl)cyclopropyl)imidazo[1,2-b]pyridazin-6-yl)pyrimidine-2,4(1H,3H)-dione]
7.17 | O=c1[nH]cc(-c2cc([C@H]3C[C@@H]3c3ncc(C(F)(F)F)s3)c3nccn3n2)c(=O)[nH]1 (racemic) [Example 364, 5-(8-((1S,2S)-2-(5-(trifluoromethyl)thiazol-2-yl)cyclopropyl)imidazo[1,2-b]pyridazin-6-yl)pyrimidine-2,4(1H,3H)-dione]
6.6 | O=c1[nH]cc(-c2cc([C@H]3C[C@@H]3c3cnn(C(F)(F)F)c3)c3nccn3n2)c(=O)[nH]1 (racemic) [Example 366, 5-(8-((1S,2S)-2-(1-(trifluoromethyl)-1H-pyrazol-4-yl)cyclopropyl)imidazo[1,2-b]pyridazin-6-yl)pyrimidine-2,4(1H,3H)-dione]
4.02 | O=c1[nH]cc(-c2cc([C@H]3C[C@@H]3c3cnn(C(F)F)c3)c3ncc(F)n3n2)c(=O)[nH]1 (racemic) [Example 370, 5-(8-((1S,2S)-2-(1-(difluoromethyl)-1H-pyrazol-4-yl)cyclopropyl)-3-fluoroimidazo[1,2-b]pyridazin-6-yl)pyrimidine-2,4(1H,3H)-dione]
3.4 | O=c1[nH]cc(-c2cc([C@H]3C[C@@H]3c3ccc(OC(F)(F)F)cn3)c3nccn3n2)c(=O)[nH]1 (racemic) [Example 372, 5-(8-((1S,2S)-2-(5-(trifluoromethoxy)pyridin-2-yl)cyclopropyl)imidazo[1,2-b]pyridazin-6-yl)pyrimidine-2,4(1H,3H)-dione]
4.1 | O=c1[nH]cc(-c2cc([C@H]3C[C@@H]3c3ccc(OC(F)(F)F)cn3)c3ncc(F)n3n2)c(=O)[nH]1 (racemic) [Example 374, 5-(3-fluoro-8-((1S,2S)-2-(5-(trifluoromethoxy)pyridin-2-yl)cyclopropyl)imidazo[1,2-b]pyridazin-6-yl)pyrimidine-2,4(1H,3H)-dione]
8.07 | O=c1[nH]cc(-c2cc([C@H]3C[C@@H]3c3ccc(OC(F)(F)F)nc3)c3nccn3n2)c(=O)[nH]1 (racemic) [Example 376, 5-(8-((1S,2S)-2-(6-(trifluoromethoxy)pyridin-3-yl)cyclopropyl)imidazo[1,2-b]pyridazin-6-yl)pyrimidine-2,4(1H,3H)-dione]
7.66 | O=c1[nH]cc(-c2cc([C@H]3C[C@@H]3c3ncc(C(F)(F)F)cn3)c3nccn3n2)c(=O)[nH]1 (racemic) [Example 377, 5-(8-((1S,2S)-2-(5-(trifluoromethyl)pyrimidin-2-yl)cyclopropyl)imidazo[1,2-b]pyridazin-6-yl)pyrimidine-2,4(1H,3H)-dione]
6.45 | O=c1[nH]cc(-c2cc([C@H]3C[C@@H]3c3ncc(C(F)(F)F)cn3)c3ncc(F)n3n2)c(=O)[nH]1 (racemic) [Example 378, 5-(3-fluoro-8-((1S,2S)-2-(5-(trifluoromethyl)pyrimidin-2-yl)cyclopropyl)imidazo[1,2-b]pyridazin-6-yl)pyrimidine-2,4(1H,3H)-dione]
3.01 | N#Cc1ccc([C@H]2C[C@@H]2c2cc(-c3c[nH]c(=O)[nH]c3=O)nn3ccnc23)cc1OC(F)(F)F (racemic) [Example 413, 4-((1S,2S)-2-(6-(2,4-dioxo-1,2,3,4-tetrahydropyrimidin-5-yl)imidazo[1,2-b]pyridazin-8-yl)cyclopropyl)-2-(trifluoromethoxy)benzonitrile]
2.84 | N#Cc1cc([C@H]2C[C@@H]2c2cc(-c3c[nH]c(=O)[nH]c3=O)nn3ccnc23)ccc1OC(F)(F)F (racemic) [Example 414, 5-((1S,2S)-2-(6-(2,4-dioxo-1,2,3,4-tetrahydropyrimidin-5-yl)imidazo[1,2-b]pyridazin-8-yl)cyclopropyl)-2-(trifluoromethoxy)benzonitrile]
